From patent publication US20230175033A1, “PRODUCTION OF JASMONATES IN FILAMENTOUS FUNGI” (Sumitomo Chemical Company, Limited, priority 2020, published 2023)
Like-named read-outs stand apart in the source and are kept apart here.

Tests used:
[1] = system: Lasiodiplodia iranensis DWH-2; test: JA production by Lasiodiplodia iranensis cultures under shaking conditions, JA content by HPLC; assay type: cell-based
[2] = system: Lasiodiplodia iranensis DWH-2; test: Morphology of Lasiodiplodia iranensis cultures under shaking conditions; assay type: cell-based; details: shaking 250 rpm, 30° C.
[3] = shaker 250 rpm, 30° C., eight days, 200 mg/L IAA and sodium butyrate, 100 mg/L SA and ASA, 10 mg/L VA, 2 mM H2O2

Row | SMILES | Titer (mg/L), production of JA with a jasmonate production elicitor [1, 3] [mg/L] | other results
1 | CC(=O)Oc1ccccc1C(=O)O [ASA, acetylsalicylic acid] | 100 | 
2 | OO [H2O2, hydrogen peroxide] | 160 | 
3 | O=C([O-])Cc1c[nH]c2ccccc12.[Na+] [IAA, Indole-3-acetic acid sodium salt] | 400 | 
4 | O=C([O-])c1ccccc1O.[Na+] [SA, salicylic acid sodium salt] |  | Titer (mg/L), production of JA with a jasmonate production elicitor [1]: 150 mg/L
5 | CCCC(=O)[O-].[Na+] [Sodium butyrate, sodium butyrate] |  | Titer (mg/L), production of JA with a jasmonate production elicitor [1]: 175 mg/L
6 | CCCC(CCC)C(=O)[O-].[Na+] [VA, valproic acid sodium salt] | 350 | 
7 | CC(C)=CCCC(C)=CCCC(C)=CCO [farnesol] |  | effect on fungal morphology ([2]; 100 mg/L farnesol, nine days): induced mycelial aggregation
8 | OCCc1ccc(O)cc1 [tyrosol] |  | effect on fungal morphology ([2]; 100 mg/L tyrosol, seven days): induced mycelial aggregation
